Assay results: ChEMBL document CHEMBL1201862, “PubChem BioAssay data set” (2004)
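Dose response: 5 concentrations. Exposure: 48 h. Format: 96-well plates. Endpoint: linear interpolation; highest concentration if not reached. GI50 marks 50% less growth.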 Activity calls are given as the source filed them. Rule as the data show it: active = GI50 up to about 1.1 µM and inactive = higher.

Legend:
Test in all cases: inhibition of tumour cell growth, NCI panel, 48 h
COLO 205 = system: COLO 205
HCT-116 = system: HCT-116
SW-620 = system: SW-620
KM12 = system: KM12
SNB-19 = system: SNB-19
SN12C = system: SN12C
HOP-62 = system: HOP-62
OVCAR-5 = system: OVCAR-5
SF-268 = system: SF-268
DMS-273 = system: DMS-273
LOX IMVI = system: LOX IMVI
T47D = system: T47D
IGROV-1 = system: IGROV-1
UO-31 = system: UO-31
SR = system: SR
A498 = system: A498
786-0 = system: 786-0
U-251 = system: U-251
CAKI-1 = system: CAKI-1
MOLT-4 = system: MOLT-4

| Structure (SMILES) | GI50 (COLO 205) | GI50 (HCT-116) | GI50 (SW-620) | GI50 (KM12) | GI50 (SNB-19) | GI50 (SN12C) | GI50 (HOP-62) | GI50 (OVCAR-5) | GI50 (SF-268) | GI50 (DMS-273) | GI50 (LOX IMVI) | GI50 (T47D) | GI50 (IGROV-1) | GI50 (UO-31) | GI50 (SR) | GI50 (A498) | GI50 (786-0) | GI50 (U-251) | GI50 (CAKI-1) | GI50 (MOLT-4) |
| --- | --- | --- | --- | --- | --- | --- | --- | --- | --- | --- | --- | --- | --- | --- | --- | --- | --- | --- | --- | --- |
| CNc1cccc(-c2cc(O)c3cc4c(cc3n2)OCO4)c1 | 0.167 µM (active) | 0.236 µM (active) | 0.283 µM (active) | 0.177 µM (active) | 0.432 µM (active) | 0.553 µM (active) | 0.409 µM (active) | 1.79 µM (inactive) | 1.05 µM (active) | 0.35 µM (active) | 0.372 µM (active) | 52 µM (inactive) | 0.437 µM (active) | 0.509 µM (active) | 0.0407 µM (active) | 0.307 µM (active) | 0.334 µM (active) | 0.267 µM (active) | 0.237 µM (active) | 0.581 µM (active) |
| COc1ccc(CCNCCCC2c3ccccc3-c3ccccc32)cc1OC | 1.86 µM (inactive) | 12.6 µM (inactive) | 7.33 µM (inactive) | 15.1 µM (inactive) | 16.7 µM (inactive) | 15 µM (inactive) | 16 µM (inactive) | 19.2 µM (inactive) | 15.1 µM (inactive) | 7.28 µM (inactive) | 14.2 µM (inactive) | 17.1 µM (inactive) | 13.6 µM (inactive) | 11.6 µM (inactive) | 8.22 µM (inactive) | 8.02 µM (inactive) | 15 µM (inactive) | 12.9 µM (inactive) | 18.4 µM (inactive) | 22.6 µM (inactive) |
| N#C/C(=C\c1ccc2[nH]ccc2c1)C(=O)c1ccc(O)c(O)c1 | > 67.8 µM (inactive) | > 53.6 µM (inactive) | 55.2 µM (inactive) | > 100 µM (inactive) | 50 µM (inactive) | > 82.4 µM (inactive) | > 52 µM (inactive) | > 73.8 µM (inactive) | > 64.9 µM (inactive) | 57.3 µM (inactive) | 63.7 µM (inactive) | 62.8 µM (inactive) | > 88.5 µM (inactive) | 45 µM (inactive) | 44.2 µM (inactive) | > 100 µM (inactive) | 43 µM (inactive) | 41.6 µM (inactive) | > 100 µM (inactive) | 44.7 µM (inactive) |
| C=C1CC2(OC1=O)c1ccccc1C=Cc1ccccc12 | 2.3 µM (inactive) | 1.73 µM (inactive) | 1.5 µM (inactive) | 4.05 µM (inactive) | 16 µM (inactive) | 2.66 µM (inactive) | 12.6 µM (inactive) | 9.31 µM (inactive) | 7.23 µM (inactive) | 14.8 µM (inactive) | 1.38 µM (inactive) | 1.93 µM (inactive) | 7.26 µM (inactive) | 8.3 µM (inactive) | 0.82 µM (active) | 8.24 µM (inactive) | 2.86 µM (inactive) | 8.04 µM (inactive) | 3.05 µM (inactive) | 1.81 µM (inactive) |
